Read-outs that look alike come from different tables or passages of the source. Blank lines part the entries; values can stand above or below the compound they belong to.
Legend:
Assay in all cases: biochemical
AKT2 = AKT2 (Homo sapiens, UniProt P31751)
DCAMKL2 = DCAMKL2 (Homo sapiens, UniProt Q8N568)
LZK = LZK (Homo sapiens, UniProt O43283)
EGFR(L861Q) = EGFR(L861Q) (Homo sapiens, UniProt P00533, L861Q)
IRAK3 = IRAK3 (Homo sapiens, UniProt Q9Y616)
HPK1 = HPK1 (Homo sapiens, UniProt Q92918)
CAMKK1 = CAMKK1 (Homo sapiens, UniProt Q8N5S9)
DAPK1 = DAPK1 (Homo sapiens, UniProt P53355)
HUNK = HUNK (Homo sapiens, UniProt P57058)
MARK1 = MARK1 (Homo sapiens, UniProt Q9P0L2)
MEK3 = MEK3 (Homo sapiens, UniProt P46734)
FGFR2 = FGFR2 (Homo sapiens, UniProt P21802)
CAMK2B = CAMK2B (Homo sapiens, UniProt Q13554)
MYO3A = MYO3A (Homo sapiens, UniProt Q8NEV4)
NUAK1 = NUAK1 (Homo sapiens, UniProt O60285)
CLK4 = CLK4 (Homo sapiens, UniProt Q9HAZ1)
MST2 = MST2 (Homo sapiens, UniProt Q13188)
MEK6 = MEK6 (Homo sapiens, UniProt P52564)
MEK2 = MEK2 (Homo sapiens, UniProt P36507)
CDK2 = CDK2 (Homo sapiens, UniProt P24941)
[1] = molecular target: JAK1(JH2domain-pseudokinase) (Homo sapiens, UniProt P23458)
TRKA = TRKA (Homo sapiens, UniProt P04629)
TLK1 = TLK1 (Homo sapiens, UniProt Q9UKI8)
PIK3CA(E542K) = PIK3CA(E542K) (Homo sapiens, UniProt P42336, E542K)
RSK4 = RSK4 (Homo sapiens, UniProt Q9UK32)
PLK4 = PLK4 (Homo sapiens, UniProt O00444)
PLK3 = PLK3 (Homo sapiens, UniProt Q9H4B4)
NEK4 = NEK4 (Homo sapiens, UniProt P51957)
S6K1 = S6K1 (Homo sapiens, UniProt P23443)
[2] = read-out: CPT-1-70-1 (1uM) % control
[3] = read-out: CPT-1-70-1 (1μM) % control
[4] = read-out: HYJ-2-002-1 (1uM) % control
[5] = read-out: HYJ-2-002-1 (1μM) % control

Sequence of RSK4 (Q9UK32 whole entry): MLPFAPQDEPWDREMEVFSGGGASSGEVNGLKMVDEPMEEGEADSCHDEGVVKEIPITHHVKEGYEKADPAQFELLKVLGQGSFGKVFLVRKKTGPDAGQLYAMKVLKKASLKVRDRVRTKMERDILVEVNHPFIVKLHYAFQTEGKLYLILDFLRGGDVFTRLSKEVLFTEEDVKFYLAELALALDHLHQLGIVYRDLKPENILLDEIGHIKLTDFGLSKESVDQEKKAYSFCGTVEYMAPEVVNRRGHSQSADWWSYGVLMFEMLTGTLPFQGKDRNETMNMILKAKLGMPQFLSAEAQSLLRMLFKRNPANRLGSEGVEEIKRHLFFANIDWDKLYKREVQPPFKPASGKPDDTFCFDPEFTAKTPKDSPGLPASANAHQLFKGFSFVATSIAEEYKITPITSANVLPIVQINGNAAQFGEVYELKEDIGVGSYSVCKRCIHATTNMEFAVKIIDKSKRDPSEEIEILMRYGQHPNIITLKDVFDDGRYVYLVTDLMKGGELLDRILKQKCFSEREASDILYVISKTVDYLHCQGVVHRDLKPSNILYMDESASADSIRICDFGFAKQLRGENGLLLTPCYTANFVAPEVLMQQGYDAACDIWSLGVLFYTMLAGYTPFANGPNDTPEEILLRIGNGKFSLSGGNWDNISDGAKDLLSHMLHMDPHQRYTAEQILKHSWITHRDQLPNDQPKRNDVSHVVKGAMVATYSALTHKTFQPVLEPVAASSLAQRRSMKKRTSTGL
Sequence of LZK (O43283 whole entry): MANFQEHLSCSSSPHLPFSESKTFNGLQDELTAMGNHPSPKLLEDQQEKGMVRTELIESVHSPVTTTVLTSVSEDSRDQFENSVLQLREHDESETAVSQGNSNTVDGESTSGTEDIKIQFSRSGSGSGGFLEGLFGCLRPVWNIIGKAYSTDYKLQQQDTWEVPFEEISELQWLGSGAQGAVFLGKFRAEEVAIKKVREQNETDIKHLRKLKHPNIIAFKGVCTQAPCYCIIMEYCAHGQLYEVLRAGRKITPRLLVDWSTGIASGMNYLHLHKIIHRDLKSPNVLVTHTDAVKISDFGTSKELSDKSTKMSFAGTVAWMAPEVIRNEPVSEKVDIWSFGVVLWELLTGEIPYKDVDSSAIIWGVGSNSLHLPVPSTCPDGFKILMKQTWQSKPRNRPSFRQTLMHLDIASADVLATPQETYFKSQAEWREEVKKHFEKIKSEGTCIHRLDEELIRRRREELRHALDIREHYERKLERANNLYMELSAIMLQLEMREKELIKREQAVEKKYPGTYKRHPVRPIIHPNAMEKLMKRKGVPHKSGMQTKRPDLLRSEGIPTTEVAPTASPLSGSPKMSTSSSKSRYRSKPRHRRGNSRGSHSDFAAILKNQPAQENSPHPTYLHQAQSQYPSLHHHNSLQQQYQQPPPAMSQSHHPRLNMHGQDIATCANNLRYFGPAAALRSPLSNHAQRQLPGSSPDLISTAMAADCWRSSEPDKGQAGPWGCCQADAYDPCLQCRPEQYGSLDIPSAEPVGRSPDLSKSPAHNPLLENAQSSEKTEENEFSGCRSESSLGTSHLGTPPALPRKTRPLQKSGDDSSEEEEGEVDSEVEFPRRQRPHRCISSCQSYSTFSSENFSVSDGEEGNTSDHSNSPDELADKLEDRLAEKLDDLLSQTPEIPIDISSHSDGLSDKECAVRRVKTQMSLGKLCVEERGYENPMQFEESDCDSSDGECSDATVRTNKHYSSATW
Sequence of MARK1 (Q9P0L2 whole entry): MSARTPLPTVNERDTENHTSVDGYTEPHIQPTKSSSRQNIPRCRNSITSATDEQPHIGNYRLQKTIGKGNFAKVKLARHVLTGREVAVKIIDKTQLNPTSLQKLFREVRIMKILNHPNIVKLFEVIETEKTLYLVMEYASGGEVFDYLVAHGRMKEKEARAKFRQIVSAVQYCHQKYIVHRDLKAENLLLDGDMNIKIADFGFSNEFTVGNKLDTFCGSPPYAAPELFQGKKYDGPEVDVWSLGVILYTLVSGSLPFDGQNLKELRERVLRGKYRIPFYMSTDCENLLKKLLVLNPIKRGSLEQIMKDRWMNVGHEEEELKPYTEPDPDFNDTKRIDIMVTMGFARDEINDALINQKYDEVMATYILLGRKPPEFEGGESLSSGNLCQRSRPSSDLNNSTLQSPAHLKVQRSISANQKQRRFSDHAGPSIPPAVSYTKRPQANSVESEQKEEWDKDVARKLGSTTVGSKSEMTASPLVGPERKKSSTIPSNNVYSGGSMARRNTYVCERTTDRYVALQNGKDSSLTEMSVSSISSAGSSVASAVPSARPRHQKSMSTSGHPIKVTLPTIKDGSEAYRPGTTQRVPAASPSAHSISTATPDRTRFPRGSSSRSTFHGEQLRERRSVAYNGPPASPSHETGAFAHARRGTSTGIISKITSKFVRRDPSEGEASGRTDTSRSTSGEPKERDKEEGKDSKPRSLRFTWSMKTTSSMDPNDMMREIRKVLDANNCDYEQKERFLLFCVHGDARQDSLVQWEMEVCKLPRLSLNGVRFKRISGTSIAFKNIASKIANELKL
Sequence of NUAK1 (O60285 whole entry): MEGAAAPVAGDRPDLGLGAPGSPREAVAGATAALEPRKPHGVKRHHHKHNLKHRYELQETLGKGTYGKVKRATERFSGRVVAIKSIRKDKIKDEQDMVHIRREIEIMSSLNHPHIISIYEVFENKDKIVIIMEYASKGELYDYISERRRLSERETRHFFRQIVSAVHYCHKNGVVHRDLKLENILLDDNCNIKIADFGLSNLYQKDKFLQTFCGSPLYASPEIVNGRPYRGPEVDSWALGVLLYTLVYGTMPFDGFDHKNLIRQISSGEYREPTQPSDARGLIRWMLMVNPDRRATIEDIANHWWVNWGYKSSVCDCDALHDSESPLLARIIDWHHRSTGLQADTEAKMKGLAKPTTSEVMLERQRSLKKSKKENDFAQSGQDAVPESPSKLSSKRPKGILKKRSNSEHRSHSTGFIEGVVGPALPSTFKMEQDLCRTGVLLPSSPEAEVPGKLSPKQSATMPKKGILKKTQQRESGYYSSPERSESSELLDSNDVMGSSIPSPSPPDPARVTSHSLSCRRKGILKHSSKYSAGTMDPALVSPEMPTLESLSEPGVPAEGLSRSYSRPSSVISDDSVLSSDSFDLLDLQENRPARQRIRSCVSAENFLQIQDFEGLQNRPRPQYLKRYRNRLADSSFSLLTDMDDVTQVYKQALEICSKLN
Sequence of CLK4 (Q9HAZ1 whole entry): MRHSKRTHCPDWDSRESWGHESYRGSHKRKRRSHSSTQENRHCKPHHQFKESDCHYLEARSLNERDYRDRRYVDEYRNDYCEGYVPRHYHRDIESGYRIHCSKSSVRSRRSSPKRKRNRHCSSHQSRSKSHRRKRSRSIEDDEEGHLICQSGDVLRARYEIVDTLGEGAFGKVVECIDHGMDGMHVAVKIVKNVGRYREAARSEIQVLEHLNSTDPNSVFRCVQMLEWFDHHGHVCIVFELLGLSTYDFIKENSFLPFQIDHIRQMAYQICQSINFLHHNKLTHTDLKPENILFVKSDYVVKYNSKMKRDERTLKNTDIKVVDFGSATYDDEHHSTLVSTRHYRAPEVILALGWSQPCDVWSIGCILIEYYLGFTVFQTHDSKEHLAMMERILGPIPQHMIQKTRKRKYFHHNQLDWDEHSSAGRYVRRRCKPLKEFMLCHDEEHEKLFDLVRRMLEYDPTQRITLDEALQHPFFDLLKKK
Sequence of CAMK2B (Q13554 whole entry): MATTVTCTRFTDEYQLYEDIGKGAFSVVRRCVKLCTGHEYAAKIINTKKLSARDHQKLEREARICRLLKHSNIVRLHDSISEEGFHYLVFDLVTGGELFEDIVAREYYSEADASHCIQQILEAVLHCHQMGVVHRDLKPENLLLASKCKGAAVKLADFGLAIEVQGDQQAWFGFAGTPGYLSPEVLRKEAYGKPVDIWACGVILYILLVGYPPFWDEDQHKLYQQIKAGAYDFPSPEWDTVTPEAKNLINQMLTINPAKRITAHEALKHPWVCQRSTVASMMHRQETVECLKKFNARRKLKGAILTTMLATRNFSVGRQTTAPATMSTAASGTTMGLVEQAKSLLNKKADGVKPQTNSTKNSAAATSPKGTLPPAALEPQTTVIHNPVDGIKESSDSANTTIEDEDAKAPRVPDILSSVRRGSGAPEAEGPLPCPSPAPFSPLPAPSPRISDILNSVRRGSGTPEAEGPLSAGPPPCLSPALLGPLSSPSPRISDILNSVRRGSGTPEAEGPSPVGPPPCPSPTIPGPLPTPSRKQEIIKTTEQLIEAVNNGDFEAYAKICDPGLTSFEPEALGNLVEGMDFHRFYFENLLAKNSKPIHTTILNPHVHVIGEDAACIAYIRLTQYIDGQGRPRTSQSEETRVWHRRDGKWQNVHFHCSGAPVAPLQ
Sequence of CAMKK1 (Q8N5S9 whole entry): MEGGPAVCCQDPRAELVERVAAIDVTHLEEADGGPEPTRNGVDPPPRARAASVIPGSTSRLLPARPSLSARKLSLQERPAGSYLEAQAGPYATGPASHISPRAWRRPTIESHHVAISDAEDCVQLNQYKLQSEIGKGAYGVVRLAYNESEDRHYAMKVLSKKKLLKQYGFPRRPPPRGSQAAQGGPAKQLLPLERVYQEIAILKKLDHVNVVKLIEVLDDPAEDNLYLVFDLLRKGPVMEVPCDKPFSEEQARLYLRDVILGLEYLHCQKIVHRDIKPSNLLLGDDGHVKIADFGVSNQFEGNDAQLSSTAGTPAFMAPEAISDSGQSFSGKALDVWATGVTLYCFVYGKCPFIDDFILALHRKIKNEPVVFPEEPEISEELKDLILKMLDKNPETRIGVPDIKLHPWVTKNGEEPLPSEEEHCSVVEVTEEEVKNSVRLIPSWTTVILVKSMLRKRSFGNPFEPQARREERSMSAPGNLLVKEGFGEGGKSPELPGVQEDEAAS

SMILES: CN1CCN(c2ccc(Nc3nc(Oc4ccc(NC(=O)CCl)cc4)c4cc[nH]c4n3)cc2)CC1 [CPT1-70-1]
remaining activity at 1 µM (AKT2; [2]): 100%
remaining activity at 1 µM (DCAMKL2; [2]): 92%
remaining activity at 1 µM (LZK; [2]): 73%
remaining activity at 1 µM (EGFR(L861Q); [2]): 18%
remaining activity at 1 µM (IRAK3; [2]): 89%
remaining activity at 1 µM (HPK1; [2]): 13%
remaining activity at 1 µM (CAMKK1; [2]): 84%
remaining activity at 1 µM (DAPK1; [2]): 86%
remaining activity at 1 µM (HUNK; [2]): 78%
remaining activity at 1 µM (MARK1; [2]): 2.1%
remaining activity at 1 µM (MEK3; [2]): 26%
remaining activity at 1 µM (FGFR2; [2]): 22%
remaining activity at 1 µM (CAMK2B; [2]): 100%
remaining activity at 1 µM (MYO3A; [2]): 88%
remaining activity at 1 µM (NUAK1; [2]): 9.3%
remaining activity at 1 µM (CLK4; [2]): 6.5%
remaining activity at 1 µM (MST2; [2]): 86%
remaining activity at 1 µM (MEK6; [2]): 55%
remaining activity at 1 µM (MEK2; [2]): 19%
remaining activity at 1 µM (CDK2; [2]): 100%
remaining activity at 1 µM [1, 2]: 0.75%
remaining activity at 1 µM (TRKA; [3]): 30%
remaining activity at 1 µM (TLK1; [3]): 100%
remaining activity at 1 µM (PIK3CA(E542K); [3]): 100%
remaining activity at 1 µM (RSK4; read-out: CPT-1-70-1 (1μM) % control, Kin.Dom.1-N-terminal): 45%
remaining activity at 1 µM (RSK4; read-out: CPT-1-70-1 (1μM) % control, Kin.Dom.2-C-terminal): 100%
remaining activity at 1 µM (PLK4; [3]): 23%
remaining activity at 1 µM (PLK3; [3]): 100%
remaining activity at 1 µM (NEK4; [3]): 100%
remaining activity at 1 µM (S6K1; [3]): 100%

remaining activity at 1 µM (AKT2; [4]): 95%
remaining activity at 1 µM (DCAMKL2; [4]): 100%
remaining activity at 1 µM (LZK; [4]): 78%
remaining activity at 1 µM (EGFR(L861Q); [4]): 0.85%
remaining activity at 1 µM (IRAK3; [4]): 100%
remaining activity at 1 µM (HPK1; [4]): 3.4%
remaining activity at 1 µM (CAMKK1; [4]): 100%
remaining activity at 1 µM (DAPK1; [4]): 98%
remaining activity at 1 µM (HUNK; [4]): 79%
remaining activity at 1 µM (MARK1; [4]): 100%
remaining activity at 1 µM (MEK3; [4]): 100%
remaining activity at 1 µM (FGFR2; [4]): 5.7%
remaining activity at 1 µM (CAMK2B; [4]): 74%
remaining activity at 1 µM (MYO3A; [4]): 59%
remaining activity at 1 µM (NUAK1; [4]): 65%
remaining activity at 1 µM (CLK4; [4]): 69%
remaining activity at 1 µM (MST2; [4]): 83%
remaining activity at 1 µM (MEK6; [4]): 91%
remaining activity at 1 µM (MEK2; [4]): 22%
remaining activity at 1 µM (CDK2; [4]): 100%
remaining activity at 1 µM [1, 4]: 93%
remaining activity at 1 µM (TRKA; [5]): 6.6%
remaining activity at 1 µM (TLK1; [5]): 74%
remaining activity at 1 µM (PIK3CA(E542K); [5]): 100%
remaining activity at 1 µM (RSK4; read-out: HYJ-2-002-1 (1μM) % control, Kin.Dom.1-N-terminal): 100%
remaining activity at 1 µM (RSK4; read-out: HYJ-2-002-1 (1μM) % control, Kin.Dom.2-C-terminal): 28%
remaining activity at 1 µM (PLK4; [5]): 100%
remaining activity at 1 µM (PLK3; [5]): 100%
remaining activity at 1 µM (NEK4; [5]): 57%
remaining activity at 1 µM (S6K1; [5]): 55%
SMILES: CCN1CCN(Cc2ccc(NC(=O)c3ccc(C)c(CCc4cnc5[nH]ccc5c4OC)c3)cc2C(F)(F)F)CC1 [HYJ-2-002-1]

From article doi:10.1101/2020.06.11.145995v1 (biorxiv, 2020)
